Drawing on ChEMBL document CHEMBL1128467, “Novel, potent, and selective 5-HT3 receptor antagonists based on the arylpiperazine skeleton: synthesis, structure, biological activity, and comparative molecular field analysis studies” (J Med Chem, 1995), this text covers Ki for 23 molecules.

Assay [1] concerns the target T1, 5-hydroxytryptamine receptor 1B (Rattus norvegicus, UniProt P28564). The class given is tissue-based, Striatum.
In assay [2] the target is T2, 5-hydroxytryptamine receptor 2A (Rattus norvegicus, UniProt P14842).
The target in assay [3] is T3, Serotonin 3 (5-HT3) receptor (Rattus norvegicus, UniProt P35563+Q9JJ16).
T3 sequence (P35563 whole entry): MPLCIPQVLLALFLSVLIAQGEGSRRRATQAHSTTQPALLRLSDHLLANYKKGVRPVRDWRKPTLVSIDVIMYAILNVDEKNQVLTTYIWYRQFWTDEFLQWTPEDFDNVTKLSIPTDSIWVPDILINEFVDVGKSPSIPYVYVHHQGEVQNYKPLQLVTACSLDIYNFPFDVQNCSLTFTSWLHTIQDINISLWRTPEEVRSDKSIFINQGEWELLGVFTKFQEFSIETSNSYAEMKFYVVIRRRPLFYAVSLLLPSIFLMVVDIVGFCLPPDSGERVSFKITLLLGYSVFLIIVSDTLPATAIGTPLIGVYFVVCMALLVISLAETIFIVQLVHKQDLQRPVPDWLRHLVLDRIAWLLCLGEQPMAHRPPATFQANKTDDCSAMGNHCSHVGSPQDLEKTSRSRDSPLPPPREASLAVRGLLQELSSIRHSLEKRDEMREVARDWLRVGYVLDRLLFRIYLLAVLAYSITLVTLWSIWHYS
T3 sequence (Q9JJ16 whole entry): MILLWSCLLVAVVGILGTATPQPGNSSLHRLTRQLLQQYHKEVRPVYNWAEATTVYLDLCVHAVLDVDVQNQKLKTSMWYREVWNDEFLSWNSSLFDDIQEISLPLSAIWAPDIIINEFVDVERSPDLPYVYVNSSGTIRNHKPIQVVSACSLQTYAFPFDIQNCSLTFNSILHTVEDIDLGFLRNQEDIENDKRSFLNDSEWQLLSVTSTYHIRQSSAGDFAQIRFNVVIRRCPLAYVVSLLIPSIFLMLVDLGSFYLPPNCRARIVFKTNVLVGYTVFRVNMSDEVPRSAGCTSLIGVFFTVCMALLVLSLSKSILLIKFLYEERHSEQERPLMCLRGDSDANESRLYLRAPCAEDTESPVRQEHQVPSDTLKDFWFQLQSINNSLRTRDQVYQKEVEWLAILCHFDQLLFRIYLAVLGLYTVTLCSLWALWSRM
In words: Binding affinity for 5-hydroxytryptamine 3 receptor from rat cortex using [3H]BRL-43694 as radioligand.

Assay [4] addresses 5-hydroxytryptamine receptor 2C (Sus scrofa). Nature of the assay: The compound was tested for their binding affinity towards 5-hydroxytryptamine 2C receptor.
The target of assay [5] is T4, 5-hydroxytryptamine receptor 1A (Rattus norvegicus, UniProt P19327).
T4 sequence (P19327 whole entry): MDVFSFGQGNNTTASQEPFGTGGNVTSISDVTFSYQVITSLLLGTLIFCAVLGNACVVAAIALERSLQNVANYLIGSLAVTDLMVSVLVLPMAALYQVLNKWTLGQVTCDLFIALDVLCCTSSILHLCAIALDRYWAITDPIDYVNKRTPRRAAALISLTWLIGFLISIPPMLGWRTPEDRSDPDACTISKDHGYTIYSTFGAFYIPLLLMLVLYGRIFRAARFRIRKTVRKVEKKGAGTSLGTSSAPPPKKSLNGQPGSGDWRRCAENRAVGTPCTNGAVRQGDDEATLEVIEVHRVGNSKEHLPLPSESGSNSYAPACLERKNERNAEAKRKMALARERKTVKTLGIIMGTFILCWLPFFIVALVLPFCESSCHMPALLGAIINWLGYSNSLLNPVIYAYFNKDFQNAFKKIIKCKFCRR
Type of assay: tissue-based, Hippocampus.

The target in assay [6] is T5, Sodium-dependent serotonin transporter (Rattus norvegicus, UniProt P31652).
Assay [7] deals with 5-hydroxytryptamine receptor 2C (Sus scrofa).
Assay [8] addresses T6, 5-hydroxytryptamine receptor 4 (Cavia porcellus, UniProt O70528). In words: The compound was tested for their binding affinity towards 5-hydroxytryptamine 4 receptor from guinea pig striatum using [3H]GR-113808 as radioligand. The conditions noted are these: read-out: Ki.
In assay [9] the target is T1, 5-hydroxytryptamine receptor 1B. In words: The compound was tested for their binding affinity towards 5-hydroxytryptamine 1B receptor from rat striatum using [3H]5-HT as radioligand.
In assay [10] the target is T6, 5-hydroxytryptamine receptor 4.
For assay [11], the target named is T3, Serotonin 3 (5-HT3) receptor. In words: The compound was tested for its binding affinity towards 5-hydroxytryptamine 3 receptor from rat cortex using [3H]BRL-43694 as radioligand; NA means Not active.
Assay [12] deals with T1, 5-hydroxytryptamine receptor 1B. Nature of the assay: The compound was tested for their binding affinity towards 5-hydroxytryptamine 1B receptor from rat striatum using [3H]5-HT as radioligand; Nonactive at 10 uM.
The target in assay [13] is T6, 5-hydroxytryptamine receptor 4. Nature of the assay: Displacement of [3H]-GR113808 from 5-HT4 receptor of guinea pig striatum.
Assay [14] concerns the target T5, Sodium-dependent serotonin transporter. In words: Effect of compound on Serotonin transporter uptake from rat cortex using [3H]citalopram as radioligand.
Assay [15] addresses T6, 5-hydroxytryptamine receptor 4. In words: The compound was tested for their binding affinity towards 5-hydroxytryptamine 4 receptor from guinea pig striatum using [3H]GR-113808 as radioligand; Nonactive at 10 uM.
The target of assay [16] is T3, Serotonin 3 (5-HT3) receptor. In words: The compound was tested for their binding affinity towards 5-hydroxytryptamine 3 receptor; Nonactive at 10 uM. The class given is protein-complex assay.
In assay [17] the target is T2, 5-hydroxytryptamine receptor 2A. In words: The compound was tested for its binding affinity towards 5-hydroxytryptamine 2A receptor from rat cortex using [3H]ketanserin as radioligand.; Nonactive at 10 uM.
Assay [18] concerns the target T5, Sodium-dependent serotonin transporter. Nature of the assay: Effect of compound on Serotonin transporter uptake from rat cortex using [3H]citalopram as radioligand; Nonactive at 10 uM.

T1 sequence (P28564 whole entry): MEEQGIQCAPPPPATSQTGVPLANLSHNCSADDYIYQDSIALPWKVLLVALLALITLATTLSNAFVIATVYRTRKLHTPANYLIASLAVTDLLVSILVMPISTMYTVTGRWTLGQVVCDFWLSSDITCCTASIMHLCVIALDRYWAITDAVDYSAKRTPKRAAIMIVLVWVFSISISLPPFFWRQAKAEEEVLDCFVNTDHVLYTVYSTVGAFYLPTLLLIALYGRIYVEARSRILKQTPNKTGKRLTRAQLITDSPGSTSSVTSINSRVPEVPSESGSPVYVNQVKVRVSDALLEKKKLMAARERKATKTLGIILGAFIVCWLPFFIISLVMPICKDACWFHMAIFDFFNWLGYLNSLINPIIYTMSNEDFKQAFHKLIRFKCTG
T5 sequence (P31652 whole entry): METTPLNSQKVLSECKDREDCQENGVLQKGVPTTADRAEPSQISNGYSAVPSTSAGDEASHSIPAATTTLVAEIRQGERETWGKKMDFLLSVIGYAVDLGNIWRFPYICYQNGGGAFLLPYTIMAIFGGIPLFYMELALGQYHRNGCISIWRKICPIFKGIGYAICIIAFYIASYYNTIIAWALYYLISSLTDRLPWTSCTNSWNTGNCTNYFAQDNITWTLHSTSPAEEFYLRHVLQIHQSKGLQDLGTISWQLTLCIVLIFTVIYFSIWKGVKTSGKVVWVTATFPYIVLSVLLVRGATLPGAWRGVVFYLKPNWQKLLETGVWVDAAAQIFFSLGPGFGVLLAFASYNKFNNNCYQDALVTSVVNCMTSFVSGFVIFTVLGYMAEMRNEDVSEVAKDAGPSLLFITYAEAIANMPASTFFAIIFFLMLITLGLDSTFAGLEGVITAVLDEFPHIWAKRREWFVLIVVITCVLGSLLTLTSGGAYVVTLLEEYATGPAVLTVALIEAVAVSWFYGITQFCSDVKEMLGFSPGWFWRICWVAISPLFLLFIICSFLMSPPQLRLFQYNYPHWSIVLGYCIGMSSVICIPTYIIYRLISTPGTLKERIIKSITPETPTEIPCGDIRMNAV
T6 sequence (O70528 whole entry): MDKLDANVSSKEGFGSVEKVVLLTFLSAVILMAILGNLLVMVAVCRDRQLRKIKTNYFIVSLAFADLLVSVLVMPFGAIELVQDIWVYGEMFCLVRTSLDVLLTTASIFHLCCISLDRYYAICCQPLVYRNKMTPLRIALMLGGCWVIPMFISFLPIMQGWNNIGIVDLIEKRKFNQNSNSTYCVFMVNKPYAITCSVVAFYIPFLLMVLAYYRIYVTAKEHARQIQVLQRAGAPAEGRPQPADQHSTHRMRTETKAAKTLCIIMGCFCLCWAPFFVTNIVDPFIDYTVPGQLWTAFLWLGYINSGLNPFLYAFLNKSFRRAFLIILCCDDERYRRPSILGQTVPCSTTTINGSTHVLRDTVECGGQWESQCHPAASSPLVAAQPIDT
T2 sequence (P14842 whole entry): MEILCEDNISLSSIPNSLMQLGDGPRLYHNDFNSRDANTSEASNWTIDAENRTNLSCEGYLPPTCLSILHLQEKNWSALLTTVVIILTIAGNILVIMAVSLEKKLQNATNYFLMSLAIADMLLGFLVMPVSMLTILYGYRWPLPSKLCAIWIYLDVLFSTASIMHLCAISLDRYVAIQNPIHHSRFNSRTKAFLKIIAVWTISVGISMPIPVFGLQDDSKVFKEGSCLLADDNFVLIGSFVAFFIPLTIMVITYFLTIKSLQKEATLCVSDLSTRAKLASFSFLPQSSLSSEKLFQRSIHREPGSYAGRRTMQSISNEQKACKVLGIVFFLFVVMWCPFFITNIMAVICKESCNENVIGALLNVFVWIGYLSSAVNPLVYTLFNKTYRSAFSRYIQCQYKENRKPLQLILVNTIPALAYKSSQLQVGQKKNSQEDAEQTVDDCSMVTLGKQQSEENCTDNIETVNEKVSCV

Consider `COc1cc2c(N3CCN(C)CC3)nc3ccccc3c2c2ccccc12`, for which the Ki entry in [1] was “Not Active”; in [2] (read-out: Ki), 240 nM; in [3] it was 41.6 nM; in [4], 2300 nM.
Turning to `CCN1CCN(c2nc3ccccc3c3c2ccc2ccccc23)CC1`, the Ki result was “Not Active” in assay [5]; “Not Active” in [1]; 640 nM in assay [2] (read-out: Ki); 16.4 nM in assay [3]; “Not Active” in assay [6]; “Not Active” in [7].
Take `CCN1CCN(c2nc3ccccc3c3c2cc(OC)c2ccccc23)CC1`: the Ki result was “Not Active” in assay [1], 690 nM in assay [2] (read-out: Ki), 220 nM in [3] and “Not Active” in [7].
In the case of `CN1CCN(c2nc3ccccc3c3c2oc2ccccc23)CC1`, the Ki result is “Not Active” in assay [5]; “Not Active” in assay [1]; 450 nM in assay [2] (read-out: Ki); 6900 nM in assay [8]; 12.5 nM in [3]; “Not Active” in [6]. Besides, the Ki entry in assay [7] is on record as “Not Active”.
In the case of `COc1cc2c(N3CCNCC3)nc3ccccc3c2c2ccccc12`, the Ki entry is “Not Active” in [5]; “Not Active” in assay [1]; 1100 nM in assay [2] (read-out: Ki); 66.5 nM in [3]; “Not Active” in assay [6]; “Not Active” in [7].
`CN(C)CCSc1nc2ccccc2c2c1CCOc1ccccc1-2`: the Ki entry was “Not Active” in [5]; 1300 nM in assay [9]; 2800 nM in assay [2] (read-out: Ki); 45.9 nM in [3]; “Not Active” in assay [6]; “Not Active” in assay [7].
Take `CN1CCN(c2nc3ccccc3c3c2COc2ccccc2-3)CC1`: the Ki entry in assay [5] is “Not Active”; in assay [1], “Not Active”; in [2] (read-out: Ki), 1400 nM; in assay [10], “Not Active”; in assay [3] it was 1.6 nM; in assay [6], “Not Active”. In addition, the Ki entry in assay [7] is given as “Not Active”.
On to `COc1cc2c(SCCN(C)C)nc3ccccc3c2c2ccccc12`, for which the inhibition constant (Ki) result in assay [5], in assay [1], in [2], in assay [11], in assay [6] and in assay [7] was “Not Active” in each case.
As for `CN1CCN(c2nc3ccccc3c3c2CCc2ccccc2-3)CC1`, the Ki result in assay [5] is “Not Active”; in assay [12], “Not Active”; in [2] (read-out: Ki), 400 nM; in assay [13] it was 6600 nM; in assay [3] it was 3.5 nM; in assay [6], “Not Active”. Besides, the Ki in assay [4] is 7200 nM.
For `c1ccc2c(c1)OCCc1c(N3CCNCC3)nc3ccccc3c1-2`, the Ki entry in [5] is “Not Active”; in assay [9], 420 nM; in assay [2] (read-out: Ki), 3200 nM; in [14], 330 nM.
Regarding `c1ccc2c(c1)ccc1c(N3CCNCC3)nc3ccccc3c12`, the Ki result was “Not Active” in assay [5]; “Not Active” in [1]; 1100 nM in assay [2] (read-out: Ki); 130 nM in [3]; “Not Active” in assay [6]; “Not Active” in assay [7].
As to `CCN1CCN(c2nc3ccccc3c3c2COc2ccccc2-3)CC1`, the Ki entry was “Not Active” in assay [5]; “Not Active” in [1]; 1100 nM in [2] (read-out: Ki); 53.3 nM in [3]; “Not Active” in assay [6]; “Not Active” in assay [7].
In the case of `CN1CCN(c2nc3ccccc3c3c2CCOc2ccccc2-3)CC1`, the Ki result is “Not Active” in assay [5], “Not Active” in assay [1], 2400 nM in assay [2] (read-out: Ki) and “Not Active” in assay [15].
In the case of `c1ccc2c(c1)CCc1c(N3CCNCC3)nc3ccccc3c1-2`, the Ki result in assay [5] was “Not Active”; in [1], “Not Active”; in assay [2] (read-out: Ki), 640 nM; in assay [3], 5.4 nM; in assay [14] it was 2600 nM; in [7] it was “Not Active”.
On to `CN(C)CCSc1nc2ccccc2c2c1ccc1ccccc12`, for which the inhibitory constant (Ki) result in [5] is “Not Active”; in assay [1], “Not Active”; in [2] (read-out: Ki), 2400 nM; in assay [16], “Not Active”; in assay [6], “Not Active”; in assay [7], “Not Active”.
As to `CN(C)CCSc1nc2ccccc2c2c1COc1ccccc1-2`, the Ki entry in assay [5] was “Not Active”; in [1] it was “Not Active”; in assay [2] (read-out: Ki), 1800 nM; in [16], “Not Active”; in assay [6] it was “Not Active”; in assay [7], “Not Active”.
`CN(C)CCSc1nc2ccccc2c2c1CCc1ccccc1-2`: the inhibition constant Ki entry in assay [5] is “Not Active”; in assay [12], “Not Active”; in [2] (read-out: Ki), 930 nM; in [16] it was “Not Active”; in assay [7] it was “Not Active”.
For the molecule `CN(C)CCSc1nc2ccccc2c2c1oc1ccccc12`, the Ki entry in [5] is “Not Active”; in assay [1], “Not Active”; in assay [17], “Not Active”; in assay [3] it was 410 nM; in assay [6], “Not Active”; in assay [7] it was “Not Active”.
With `CCN1CCN(c2nc3ccccc3c3c2oc2ccccc23)CC1`, the Ki entry in assay [5] was “Not Active”; in assay [1], “Not Active”; in [2] (read-out: Ki) it was 530 nM; in assay [3], 52.2 nM; in [18], “Not Active”; in assay [7] it was “Not Active”.
For the molecule `CCN1CCN(c2nc3ccccc3c3c2CCc2ccccc2-3)CC1`, the Ki result in assay [5] is “Not Active”; in assay [1] it was “Not Active”; in [2] (read-out: Ki), 600 nM; in assay [3], 8 nM; in [6], “Not Active”; in assay [7] it was “Not Active”.
As for `c1ccc2c(c1)OCc1c(N3CCNCC3)nc3ccccc3c1-2`, the inhibition constant (Ki) entry in assay [5] was “Not Active”; in [1] it was “Not Active”; in assay [2] (read-out: Ki), 2800 nM; in assay [3] it was 11.5 nM; in [14] it was 360 nM; in assay [7] it was “Not Active”.
For the molecule `c1ccc2c(CCC3CCNCC3)c[nH]c2c1` [INDALPINE], affinity in assay [14] was put at a Ki of 2 nM.
For the molecule `c1ccc2nc(N3CCNCC3)ccc2c1` [QUIPAZINE], the inhibition constant Ki in [9] was 208 nM; in assay [2] (read-out: Ki), 130 nM; in assay [10], “Not Active”; in assay [3] it was 1.2 nM; in [14] it was 43 nM.
